Test results taken from patent publication US9238619B2, “Phenalkylamine derivatives, pharmaceutical compositions containing them, and their use in therapy” (AbbVie Deutschland GmbH & Co. KG, priority 2010, dated 2016).
Where a name gives a salt, the structure may show the parent alone.

molecular target: human GlyT1c transporter (Homo sapiens (Human), UniProt P48067); assay: Radioligand binding assays using recombinant CHO cell membranes expressing human GlyT1; details: read-out: radioligand binding Kiapp
Sequence (P48067 whole entry): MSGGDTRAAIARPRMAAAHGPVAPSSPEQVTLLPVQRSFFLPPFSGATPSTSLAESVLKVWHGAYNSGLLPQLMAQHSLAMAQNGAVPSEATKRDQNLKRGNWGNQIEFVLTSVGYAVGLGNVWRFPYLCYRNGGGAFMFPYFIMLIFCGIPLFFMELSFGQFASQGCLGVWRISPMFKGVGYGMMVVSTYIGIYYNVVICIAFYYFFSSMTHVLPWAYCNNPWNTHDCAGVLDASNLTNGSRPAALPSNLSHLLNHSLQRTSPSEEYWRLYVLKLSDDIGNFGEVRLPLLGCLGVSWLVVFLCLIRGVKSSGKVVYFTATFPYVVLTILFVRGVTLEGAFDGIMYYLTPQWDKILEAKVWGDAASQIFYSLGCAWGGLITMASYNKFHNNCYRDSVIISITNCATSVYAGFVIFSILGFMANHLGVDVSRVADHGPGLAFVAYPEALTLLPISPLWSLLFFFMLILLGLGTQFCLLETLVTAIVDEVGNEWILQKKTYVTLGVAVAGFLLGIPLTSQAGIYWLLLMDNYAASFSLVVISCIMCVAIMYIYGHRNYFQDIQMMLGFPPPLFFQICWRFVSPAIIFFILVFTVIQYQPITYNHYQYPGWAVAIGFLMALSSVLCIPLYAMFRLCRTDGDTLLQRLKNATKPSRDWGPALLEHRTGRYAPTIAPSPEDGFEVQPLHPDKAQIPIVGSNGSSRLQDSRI
Experimental: Radioligand binding to human GlyT1c transporter-expressing membranes was determined as described in Mezler et al., Molecular Pharmacology 74:1705-1715, 2008.

Q: How did the Ki turn out when `Cn1cc(S(=O)(=O)NCCOc2cccc(C(Cc3ccccc3)CN3CCCC3)c2)cn1` (stereo not shown) [Example 34, 1-Methyl-1H-pyrazole-4-sulfonic acid {2-[3-(1-benzyl-2-pyrrolidin-1-yl-ethyl)phenoxy]-ethyl}-amide] was run?
A: ≤ 1000 nM

Q: `Cn1cnc(S(=O)(=O)NCCOc2cccc(C3(Cc4ccccc4)CCN(CC(C)(C)C)C3)c2)c1` (stereo not shown) [Example 76, 1-Methyl-1H-imidazole-4-sulfonic acid (2-{3-[3-benzyl-1-(2,2-dimethylpropyl)-pyrrolidin-3-yl]-phenoxy}-ethyl)-amide] was tested. Which Ki did it give?
A: ≤ 100 nM

Q: For `Cn1cnc(S(=O)(=O)NCCOc2cccc(C(CN)Cc3ccccc3)c2)c1` (stereo not shown) [Example 5, 1-Methyl-1H-imidazole-4-sulfonic acid {2-[3-(2-amino-1-benzyl-ethyl)phenoxy]-ethyl}-amide], which Ki is on record?
A: ≤ 100 nM

Q: How did the Ki turn out when `CN1CCC(Cc2ccccc2)(c2cccc(OCCN(C)S(=O)(=O)c3cn(C)cn3)c2)C1` (stereo not shown) [Example 74, 1-Methyl-1H-imidazole-4-sulfonic acid {2-[3-(3-benzyl-1-methyl-pyrrolidin-3-yl)-phenoxy]-ethyl}-methyl-amide] was run?
A: ≤ 1000 nM

Q: Which Ki does the source give for `Cn1cc(S(=O)(=O)NCCOc2cccc(C3(Cc4ccccc4)CNC(=O)C3)c2)cn1` (stereo not shown) [Example 58, 1-Methyl-1H-pyrazole-4-sulfonic acid {2-[3-(3-benzyl-5-oxo-pyrrolidin-3-yl)phenoxy]-ethyl}-amide] here?
A: ≤ 1000 nM

Q: With `CN(C)CC(Cc1ccccc1)c1cccc(OCCNS(=O)(=O)c2cnn(C)c2)c1` (stereo not shown) [Example 24, 1-Methyl-1H-pyrazole-4-sulfonic acid {2-[3-(1-benzyl-2-dimethylamino-ethyl)phenoxy]-ethyl}-amide] as the molecule, how does the Ki read?
A: ≤ 100 nM

Q: Which Ki does the source give for `CN(C)CC(Cc1ccccc1)c1cccc(CNS(=O)(=O)c2cn(C)cn2)c1` (stereo not shown) [Example 26, 1-Methyl-1H-imidazole-4-sulfonic acid 3-(1-benzyl-2-dimethylamino-ethyl)benzylamide] here?
A: ≤ 1000 nM

Q: `Cn1cnc(S(=O)(=O)NCCOc2cccc(C3(Cc4ccccc4)CCN(CCF)C3)c2)c1` (stereo not shown) [Example 75] was tested. Which Ki did it give?
A: ≤ 100 nM

Q: Which Ki does the source give for `Cn1cnc(S(=O)(=O)NCCOc2cccc(C(CN)Cc3cc(F)cc(F)c3)c2)c1` (stereo not shown) [Example 11, 1-Methyl-1H-imidazole-4-sulfonic acid (2-{3-[2-amino-1-(3,5-difluoro-benzyl)ethyl]-phenoxy}-ethyl)-amide, hydrochloride] here?
A: ≤ 1000 nM

Q: For `CN1CCCC(Cc2ccccc2)(c2cccc(OCCNS(=O)(=O)c3cnn(C)c3)c2)C1` (stereo not shown) [Example 63, 1-Methyl-1H-pyrazole-4-sulfonic acid {2-[3-(3-benzyl-1-methyl-piperidin-3-yl)phenoxy]-ethyl}-amide], which Ki is on record?
A: ≤ 100 nM

Q: Which Ki does the source give for `CCCS(=O)(=O)N(C)Cc1cccc(C(CN)C2(c3ccc(Cl)cc3)CCC2)c1` (stereo not shown) [Example 42, N-(3-{2-Amino-1-[1-(4-chlorophenyl)cyclobutyl]ethyl}benzyl)-N-methylpropane-1-sulfonamide hydrochloride] here?
A: ≤ 10000 nM

Q: How did the Ki turn out when `CN1CCCC(Cc2ccccc2)(c2cccc(OCCNS(=O)(=O)c3cn(C)cn3)c2)C1` (stereo not shown) [Example 62, 1-Methyl-1H-imidazole-4-sulfonic acid {2-[3-(3-benzyl-1-methyl-piperidin-3-yl)-phenoxy]-ethyl}-amide] was run?
A: ≤ 100 nM

Q: How did the Ki turn out when `Cn1cnc(S(=O)(=O)NCc2cccc(C(Cc3ccccc3)C(N)=O)c2)c1` (stereo not shown) [Example 16, 2-{3-[(1-Methyl-1H-imidazole-4-sulfonylamino)-methyl]-phenyl}-3-phenyl-propionamide] was run?
A: ≤ 10000 nM

Q: With `Cn1cc(S(=O)(=O)NCCOc2cccc(C(CN)Cc3ccccc3)c2)cn1` (stereo not shown) [Example 6, 1-Methyl-1H-pyrazole-4-sulfonic acid {2-[3-(2-amino-1-benzyl-ethyl)-phenoxy]-ethyl}-amide, hydrochloride] as the molecule, how does the Ki read?
A: ≤ 100 nM

Q: For `Cn1cc(S(=O)(=O)NCc2cccc(C3(Cc4ccccc4)CCNC3)c2)cn1` (stereo not shown) [Example 67, 1-Methyl-1H-pyrazole-4-sulfonic acid 3-(3-benzyl-pyrrolidin-3-yl)benzylamide], which Ki is on record?
A: ≤ 100 nM

Q: `CN1CC(Cc2ccccc2)(c2ccc(F)c(OCCN(C)S(=O)(=O)c3cn(C)cn3)c2)C1` [Example 53, 1-Methyl-1H-imidazole-4-sulfonic acid {2-[5-(3-benzyl-1-methyl-azetidin-3-yl)-2-fluoro-phenoxy]-ethyl}-methyl-amide] was tested. Which Ki did it give?
A: ≤ 1000 nM

Q: Which Ki does the source give for `O=S(=O)(CC1CC1)NCc1cccc(C(Cc2ccccc2)CN2CCOCC2)c1` (stereo not shown) [Example 22, N-[3-(1-Benzyl-2-morpholin-4-yl-ethyl)-benzyl]-C-cyclopropyl-methanesulfonamide, hydrochloride] here?
A: ≤ 10000 nM

Q: With `Cn1cc(S(=O)(=O)NCc2cccc(C(Cc3ccccc3)CN3CCOCC3)c2)cn1` (stereo not shown) [Example 21, 1-Methyl-1H-pyrazole-4-sulfonic acid 3-(1-benzyl-2-morpholin-4-yl-ethyl)benzylamide] as the molecule, how does the Ki read?
A: ≤ 1000 nM

Q: Which Ki does the source give for `CN(C)CC(Cc1ccccc1)c1cc(OCCNS(=O)(=O)c2cnn(C)c2)ccc1Cl` (stereo not shown) [Example 30, 1-Methyl-1H-pyrazole-4-sulfonic acid {2-[3-(1-benzyl-2-dimethylamino-ethyl)-4-chloro-phenoxy]-ethyl}-amide, hydrochloride] here?
A: ≤ 100 nM

Q: How did the Ki turn out when `Cn1cc(S(=O)(=O)NCCOc2cccc(C(CN)Cc3ccc(Cl)cc3)c2)cn1` (stereo not shown) [Example 8, 1-Methyl-1H-pyrazole-4-sulfonic acid (2-{3-[2-amino-1-(4-chloro-benzyl)ethyl]-phenoxy}-ethyl)-amide, hydrochloride] was run?
A: ≤ 1000 nM

Q: For `Cn1cc(S(=O)(=O)NCc2cccc(C(CN)Cc3ccccc3)c2)cn1` (stereo not shown) [Example 18, 1-Methyl-1H-pyrazole-4-sulfonic acid 3-(2-amino-1-benzyl-ethyl)benzylamide, hydrochloride], which Ki is on record?
A: ≤ 100 nM

Q: For `CN1CCC(Cc2ccccc2)(c2cccc(OCCNS(=O)(=O)c3cn(C)cn3)c2)C1` (stereo not shown) [Example 70, 1-Methyl-1H-imidazole-4-sulfonic acid {2-[3-(3-benzyl-1-methyl-pyrrolidin-3-yl)-phenoxy]-ethyl}-amide], which Ki is on record?
A: ≤ 100 nM

Q: How did the Ki turn out when `Cn1cnc(S(=O)(=O)NCCOc2cccc(C3(Cc4ccccc4)CN(CCF)C3)c2)c1` [Example 72, 1-Methyl-1H-imidazole-4-sulfonic acid (2-{3-[3-benzyl-1-(2-fluoro-ethyl)azetidin-3-yl]-phenoxy}-ethyl)-amide] was run?
A: ≤ 100 nM

Q: How did the Ki turn out when `Cn1cc(S(=O)(=O)NCCOc2cccc(C(CN)Cc3cccc(Cl)c3)c2)cn1` (stereo not shown) [Example 2, 1-Methyl-1H-pyrazole-4-sulfonic acid (2-{3-[2-amino-1-(3-chloro-benzyl)ethyl]-phenoxy}-ethyl)-amide, hydrochloride] was run?
A: ≤ 1000 nM

Q: With `Cn1cc(S(=O)(=O)NCc2cccc(C(Cc3ccccc3)C(N)=O)c2)cn1` (stereo not shown) [Example 15, 2-{3-[(1-Methyl-1H-pyrazole-4-sulfonylamino)-methyl]-phenyl}-3-phenyl-propionamide] as the molecule, how does the Ki read?
A: ≤ 10000 nM

Q: For `CN(C)CC(Cc1cccc(C(F)(F)F)c1)c1cccc(OCCNS(=O)(=O)c2cnn(C)c2)c1` (stereo not shown) [Example 28, 1-Methyl-1H-pyrazole-4-sulfonic acid (2-{3-[2-dimethylamino-1-(3-trifluoromethyl-benzyl)-ethyl]-phenoxy}-ethyl)-amide], which Ki is on record?
A: ≤ 100 nM

Q: With `O=C1CC(Cc2ccccc2)(c2cccc(OCCNS(=O)(=O)CC3CC3)c2)CN1` (stereo not shown) [Example 57, N-{2-[3-(3-Benzyl-5-oxo-pyrrolidin-3-yl)-phenoxy]-ethyl}-C-cyclopropyl-methanesulfonamide] as the molecule, how does the Ki read?
A: ≤ 10000 nM

Q: How did the Ki turn out when `CN(C)CC(Cc1cccc(C(F)(F)F)c1)c1cccc(OCCNS(=O)(=O)c2cn(C)cn2)c1` (stereo not shown) [Example 29, 1-Methyl-1H-imidazole-4-sulfonic acid (2-{3-[2-dimethylamino-1-(3-trifluoromethyl-benzyl)-ethyl]-phenoxy}-ethyl)-amide] was run?
A: ≤ 100 nM

Q: `Cn1cc(S(=O)(=O)NCc2cccc(C3(Cc4ccccc4)CNC(=O)C3)c2)cn1` (stereo not shown) [Example 66, 1-Methyl-1H-pyrazole-4-sulfonic acid 3-(3-benzyl-5-oxo-pyrrolidin-3-yl)benzylamide] was tested. Which Ki did it give?
A: ≤ 10000 nM

Q: How did the Ki turn out when `CCOC(=O)N1CC(Cc2ccccc2)(c2cccc(OCCNS(=O)(=O)c3cn(C)cn3)c2)C1` [Example 47, 3-Benzyl-3-{3-[2-(1-methyl-1H-imidazole-4-sulfonylamino)-ethoxy]-phenyl}-azetidine-1-carboxylic acid ethyl ester] was run?
A: ≤ 1000 nM

Q: Which Ki does the source give for `Cn1cnc(S(=O)(=O)NCCOc2cccc(C3(Cc4ccccc4)CNC3)c2)c1` [Example 51, 1-Methyl-1H-imidazole-4-sulfonic acid {2-[3-(3-benzyl-azetidin-3-yl)phenoxy]-ethyl}-amide] here?
A: ≤ 100 nM

Q: `CN1CC(Cc2ccccc2)(c2cccc(OCCNS(=O)(=O)c3cn(C)cn3)c2)C1` [Example 78, 1-Methyl-1H-imidazole-4-sulfonic acid {2-[3-(3-benzyl-1-methyl-azetidin-3-yl)phenoxy]-ethyl}-amide] was tested. Which Ki did it give?
A: ≤ 100 nM

Q: For `Cn1cc(S(=O)(=O)NCCOc2cccc(C(CN)Cc3cccc(C(F)(F)F)c3)c2)cn1` (stereo not shown) [Example 10, 1-Methyl-1H-pyrazole-4-sulfonic acid (2-{3-[2-amino-1-(3-trifluoromethylbenzyl)-ethyl]-phenoxy}-ethyl)-amide, hydrochloride], which Ki is on record?
A: ≤ 100 nM

Q: How did the Ki turn out when `Cn1cnc(S(=O)(=O)NCCOc2cccc(C3(Cc4ccccc4)CNC(=O)C3)c2)c1` (stereo not shown) [Example 56, 1-Methyl-1H-imidazole-4-sulfonic acid {2-[3-(3-benzyl-5-oxo-pyrrolidin-3-yl)-phenoxy]-ethyl}-amide] was run?
A: ≤ 1000 nM

Q: For `Cn1cnc(S(=O)(=O)NCc2cccc(C(CN)Cc3ccccc3)c2)c1` (stereo not shown) [Example 19, 1-Methyl-1H-imidazole-4-sulfonic acid 3-(2-amino-1-benzyl-ethyl)benzylamide, hydrochloride], which Ki is on record?
A: ≤ 1000 nM

Q: Which Ki does the source give for `Cn1cnc(S(=O)(=O)NCCOc2cccc(C(Cc3ccccc3)CN3CCCC3)c2)c1` (stereo not shown) [Example 35, 1-Methyl-1H-imidazole-4-sulfonic acid {2-[3-(1-benzyl-2-pyrrolidin-1-yl-ethyl)phenoxy]-ethyl}-amide] here?
A: ≤ 1000 nM

Q: Which Ki does the source give for `CN(Cc1cccc(C(CN)C2(c3ccc(Cl)cc3)CCC2)c1)S(=O)(=O)c1cnn(C)c1` (stereo not shown) [Example 45, N-(3-{2-Amino-1-[1-(4-chlorophenyl)cyclobutyl]ethyl}benzyl)-N,1-dimethyl-1H-pyrazole-4-sulfonamide hydrochloride] here?
A: ≤ 10000 nM
